Non-standard residues stand in square brackets, D forms with d. Residues, ends and D or L forms follow the SMILES beside them. *: point of attachment. Phe(2-Me) = Cc1ccccc1C[CH](N)C(=O)O; Tle = CC(C)(C)[CH](N)C(=O)O; X3 = CC(C)(C)OC(=O)CCC(=O)*; Cbz = O=C(OCc1ccccc1)*; OtBu = CC(C)(C)O*
First: CC(=O)Oc1c(C)cc(Oc2ccc3nc(COc4ccc(CC5SC(=O)N(C(c6ccccc6)(c6ccccc6)c6ccccc6)C5=O)cc4)n(C)c3n2)c(C)c1C (stereo not drawn)
Second: COC(=O)C(CCNC(=O)c1ccccc1C(=O)O)Oc1c(Br)cc(-c2ccc(-c3c(Cc4ccccc4)sc4ccccc34)cc2)cc1Br (stereo not drawn)
The melting point of the first is higher: 190 to 191 °C for the first, 95 to 97 °C for the second.

First: CC1(C)CC(OC(=O)CCCCCCCCC(=O)OC2CC(C)(C)N(OC3CCCCCCCCCCC3)C(C)(C)C2)CC(C)(C)N1OC1CCCCCCCCCCC1
Second: CC(C)CCCC(C)C1CCC2C3CC=C4CC(NCCCNC(=O)CCNC(=O)CCNC(=O)CCCCCNc5ccc([N+](=O)[O-])cc5[N+](=O)[O-])CCC4(C)C3CCC12C (stereo not drawn)
The melting point of the first is lower: 70 to 78 °C for the first, 118 to 119 °C for the second.

First: CCNC(Cc1cc(I)c(Oc2cc(I)c(O)c(I)c2)c(I)c1)C(=O)O (stereo not drawn)
Second: CCCCC(C)OC(=O)c1c(I)c(I)c(C(=O)OC(C)CCCC)c(I)c1I (stereo not drawn)
The melting point of the first is higher: 191 to 193 °C for the first, 114 to 115 °C for the second.

Compared with `O=C(CC(CC(=O)OCc1cc(Br)cc(Br)c1O)C(=O)OCc1cc(Br)cc(Br)c1O)OCc1cc(Br)cc(Br)c1O`, `C=CC(=O)OCCCCCCCCCCCOc1ccc(-c2nc(-c3ccc(OCCCCCCCCCCCOC(=O)C=C)cc3O)nc(-c3ccc(OCCCCCCCCCCCOC(=O)C=C)cc3O)n2)c(O)c1` is lower in melting point: 100 to 102 °C for the first, 72.8 °C for the second.

First: COC(=O)C(CC(C)C)NC(=O)C(Cc1ccccc1)NC(=O)C(Cc1ccc(O)cc1)NC(=O)C(CO)NC(=O)C(Cc1c[nH]c2ccccc12)NC(=O)OCc1ccccc1 (stereo not drawn) (Cbz-WSYFL-OMe; configuration not given here)
Second: CC(C)C[C@H](NC(=O)[C@H](Cc1c[nH]cn1)NC(=O)[C@H](Cc1cccc2ccccc12)NC(=O)OCc1ccccc1)[C@@H](O)CC(=O)NN1CCN(c2cccc(C(F)(F)F)c2)CC1
The melting point of the first is higher: 221 to 223 °C for the first, 179 to 181 °C for the second.

Compared with `CCCCCCCCCCCCCCCCOC(=O)c1ccc(C(=O)N(CCCCCCCCCCCCCCCC)OCCCCCCCCCCCCCCCC)nc1`, `CCCCCCCCCCCCCCCC(=O)C(O)[C@](O)(C(=O)CCCCCCCCCCCCCCC)[C@@H](O)[C@H](O)[C@@](O)(C(=O)CCCCCCCCCCCCCCC)C(O)C(=O)CCCCCCCCCCCCCCC` (stereo partly drawn) is lower in melting point: 93 to 95 °C for the first, 72 to 74 °C for the second.

Compared with `O=S(=O)(OCC(I)C(F)(F)C(F)(F)C(F)(F)C(F)(F)F)OCC(I)C(F)(F)C(F)(F)C(F)(F)C(F)(F)F` (stereo not drawn), `FC(F)(F)C(F)(F)C(F)(F)C(F)(F)C(F)(F)C(F)(F)C(F)(F)C(F)(F)CCC1(CCC(F)(F)C(F)(F)C(F)(F)C(F)(F)C(F)(F)C(F)(F)C(F)(F)C(F)(F)F)c2ccccc2-c2ccccc21` is higher in melting point: 45 to 48 °C for the first, 87 to 88 °C for the second.

First: CCOC(=O)OC1=C(c2c(C)cc(C)cc2C)C(=O)NC12CCN(N(C)C)CC2
Second: C=CC1=C(C)c2cc3[nH]c(cc4nc(cc5[nH]c(cc1n2)c(C)c5CCC(=O)OC(CN(C)C)CN(C)C)C(CCC(=O)OC(CN(C)C)CN(C)C)=C4C)c(C)c3C=C
The melting point of the first is lower: 162 to 166 °C for the first, 181 to 190 °C for the second.

Compared with `CCCCCCCCCCCCCCCCCCN(Cc1c(C)cc(C(C)(C)C)c(O)c1C)S(=O)(=O)c1ccc(-c2ccc(S(=O)(=O)N(CCCCCCCCCCCCCCCCCC)Cc3c(C)cc(C(C)(C)C)c(O)c3C)cc2)cc1`, `CCCCCCC1(CCCCCC)c2cc(-c3ccc4c(c3)nc(N)c3nc(COCC)n(CC(C)(C)O)c34)ccc2-c2ccc(-c3ccc4c(c3)nc(N)c3nc(COCC)n(CC(C)(C)O)c34)cc21` is higher in melting point: 208 to 210 °C for the first, 261 to 265 °C for the second.

Compared with `CC(=O)OCC(CN(CC(COC(C)=O)OC(C)=O)C(=O)c1c(I)c(NC(=O)C2CCCO2)c(I)c(C(N)=O)c1I)OC(C)=O` (stereo not drawn), `CC(=O)OC1C(=O)C2(C)C(O)CC3OCC3(OC(C)=O)C2C(OC(=O)c2ccccc2)C23OC(=O)OC2C(OC(=O)C(O)C(CC(C)C)NC(=O)OC(C)(C)C)C(C)=C1C3(C)C` (stereo not drawn) is higher in melting point: 101 to 104 °C for the first, 159 °C for the second.

First: CC(C)(O)CCOc1c(-c2ccc(S(N)(=O)=O)cc2)cnn(-c2ccc(F)cc2)c1=O
Second: NS(=O)(=O)c1ccc(-c2c(-c3ccccc3)noc2CO[N+](=O)[O-])cc1
The melting point of the first is higher: 163 to 164 °C for the first, 47 to 50 °C for the second.

First: O=S(=O)(C(/C=C/c1ccc(I)cc1)c1ccc(Cl)cc1Cl)C(/C=C/c1ccc(I)cc1)c1ccc(Cl)cc1Cl (stereo not drawn)
Second: O=S(=O)(C(/C=C/c1ccc(Br)cc1)c1ccc(I)cc1)C(/C=C/c1ccc(Br)cc1)c1ccc(I)cc1 (stereo not drawn)
The melting point of the first is lower: 181 to 182 °C for the first, 217 to 219 °C for the second.

First: CC(=O)ON=NCc1ccc(C(=O)NCCCNC(=O)[C@@H]2CCCN2S(=O)(=O)c2ccc(Cl)c(COc3cccc4c(-n5ccnc5)cc(C)nc34)c2Cl)cc1
Second: CCC(Br)=C1NC(=O)N(C(C(=O)Nc2cc(NC(=O)C(CC)Oc3ccc(C(C)(C)CC)cc3C(C)(C)CC)ccc2Cl)C(=O)c2ccc(OC)cc2)C1=O (stereo not drawn)
The melting point of the first is lower: 96 °C for the first, 112 to 114 °C for the second.

First: CC(C)(C)c1cc(CCC(=O)NN=C(O)c2cc(-c3ccc(C(=O)O)c(C(O)=NNC(=O)CCc4cc(C(C)(C)C)c(O)c(C(C)(C)C)c4)c3)ccc2C(=O)O)cc(C(C)(C)C)c1O
Second: CC(c1cc(C(C)(C)C)cc(C(C)(C)C)c1O)c1cc(C(C)(C)C)cc(C(C)(C)C)c1OP1Oc2c(cc(C(C)(C)C)cc2C(C)(C)C)C(C)c2cc(C(C)(C)C)cc(C(C)(C)C)c2O1 (stereo not drawn)
The melting point of the first is higher: 291 to 293 °C for the first, 219 to 221 °C for the second.

Compared with `O=[N+]([O-])c1cc(Sc2ccc(-c3c(S(=O)c4ccc(Cl)c([N+](=O)[O-])c4-c4ccc(Sc5ccc(Cl)c([N+](=O)[O-])c5)cc4)ccc(Cl)c3[N+](=O)[O-])cc2)ccc1Cl`, `CCC1(CC)c2cc(-c3ccc(N(c4ccccc4)c4ccc(-c5ccc6c(c5)C(CC)(CC)c5cc(-c7nc8ccccc8s7)ccc5-6)cc4)cc3)ccc2-c2ccc(-c3nc4ccccc4s3)cc21` is higher in melting point: 144 to 146 °C for the first, 257 to 262 °C for the second.

First: CC(=O)OC(COc1ccc(C(C)(C)c2ccc(OCC(CN3C(=O)NC4(CC(C)(C)N(C(C)=O)C(C)(C)C4)C3=O)OC(C)=O)cc2)cc1)CN1C(=O)NC2(CC(C)(C)N(C(C)=O)C(C)(C)C2)C1=O (stereo not drawn)
Second: COC(=O)c1ccc(Cn2c(C(=O)C3CCN(CCC4(c5ccc(OC)c(OC)c5)CCN(C(=O)c5cc(OC)c(OC)c(OC)c5)C4)CC3)nc3ccccc32)cc1 (stereo not drawn)
The melting point of the first is higher: 147 to 149 °C for the first, 100 to 104 °C for the second.

First: Cc1ccccc1CC(NC(=O)C(CCC(=O)OC(C)(C)C)NC(=O)C(CC(=O)OC(C)(C)C)NC(=O)CCC(=O)OC(C)(C)C)C(=O)NC(C(=O)NC(CC(C)C)C(=O)O)C(C)(C)C (X3-D(OtBu)E(OtBu)[Phe(2-Me)][Tle]L-OH; configuration not given here)
Second: COc1cc(OC)c(/C=C/C(c2ccc(OC)c(NS(=O)(=O)C(F)(F)F)c2)S(=O)(=O)C(/C=C/c2c(OC)cc(OC)cc2OC)c2ccc(OC)c(NS(=O)(=O)C(F)(F)F)c2)c(OC)c1 (stereo not drawn)
The melting point of the first is higher: 235 to 236 °C for the first, 144 to 146 °C for the second.

First: CCOCCCO
Second: CC(C)(C)c1cc(-c2nnc(NC(=N)N)o2)cc(C(C)(C)C)c1O
The melting point of the first is lower: 5.2 °C for the first, 223 to 224 °C for the second.

First: CN(c1cccc2cc(C3=NCC(C(=O)N4CCOCC4)S3)[nH]c12)S(=O)(=O)c1cccs1 (stereo not drawn)
Second: CC1(C)CC(N(c2nc(N(C3CC(C)(C)N(O)C(C)(C)C3)C3CC(C)(C)N(O)C(C)(C)C3)nc(N(C3CC(C)(C)N(O)C(C)(C)C3)C3CC(C)(C)N(O)C(C)(C)C3)n2)C2CC(C)(C)N(O)C(C)(C)C2)CC(C)(C)N1O
The melting point of the first is lower: 238 to 239 °C for the first, 258 to 261 °C for the second.

Source: a melting point compilation (Tetko et al.)
